For one experiment, the target named is T1, CCL21 (Homo sapiens, UniProt O00585).
T1 construct: Our previous NMR studies defined the 3D structure of full-length CCL21; made in house
T1 sequence (O00585 24-134): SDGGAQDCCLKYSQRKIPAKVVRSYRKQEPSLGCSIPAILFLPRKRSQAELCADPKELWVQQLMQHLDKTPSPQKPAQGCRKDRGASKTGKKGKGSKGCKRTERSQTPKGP
Kind of experiment: 15N-1H HSQC NMR titration of U-15N CCL21 with CCR7 N-terminal peptides; Kd by nonlinear fitting of chemical shift perturbations. The experiment is classed as binding. The note with it: for Kd: 100 μM U-15N CCL21 titrated with peptide, NMR buffer 25 mM deuterated MES, 10% D2O, 0.2% NaN3, pH 6.0, 25 °C, fit of all CCL21 residues with significant chemical shift perturbations (11–30 sY17: only residues that did not broaden beyond detection), ± CI at 95% confidence level; for Kd, CCL21 K69 only (representative residue): nonlinear fitting of combined amide chemical shift perturbations of CCL21 residue K69 versus peptide concentration, 100 μM U-15N CCL21, pH 6.0, 25 °C. On the procedure:
NMR spectroscopic data were collected at the NMR facility at the Medical College of Wisconsin on a Bruker Avance 600 MHz spectrometer equipped with ^1H/^13C/^15N Cryoprobe® at 25 °C. Chemical shift assignments for CCR7 1–30 C24A (H, N, C, C^α, and most side chain carbons) were determined by standard techniques using 1.05 mM U-^15N/^13C labeled CCR7 1–30 C24A in NMR buffer (25 mM deuterated MES, 10% D2O, 0.2% NaN3, pH 6.0). To determine CCR7 N-terminal residues likely involved in CCL21 binding, 200 μM U-^15N/^13C CCR7 1–30 C24A in NMR buffer was monitored using ^15N-^1H HSQC spectra while titrating with increasing CCL21 concentrations (molar ratios of 1:0, 1:0.25, 1:0.5, 1:0.75, 1:1, 1:1.5, 1:2 and 1:2.5 of CCR7:CCL21).
To identify the impact of CCR7 tyrosine modification on CCL21 binding, 100 μM of U-^15N CCL21 in NMR buffer was titrated with increasing concentrations of the indicated CCR7 peptides and monitored using ^15N-^1H HSQC spectra, as previously described. […] Combined amide chemical shift perturbations (Δδ) were computed as [(5ΔδH)^2+(ΔδN)^2]^1/2, where ΔδH and ΔδN are the changes in backbone amide ^1H and ^15N chemical shifts in ppm, respectively. Dose-dependent changes in chemical shift perturbations upon titration with the various CCR7 peptides were used to determine dissociation constant (Kd) values through nonlinear fitting to an equation that takes into account ligand depletion, as previously described.

For the next experiment, the target named is T2, CCR7 5–11 (Homo sapiens).
T2 chain: TDDYIGD-NH2
Briefly: NMR.

The next experiment concerns the target T3, CCR7 5–11 sY8 (Homo sapiens, N-terminus assumed; SMILES CC[C@H](C)[C@H](NC(=O)[C@H](Cc1ccc(OS(=O)(=O)O)cc1)NC(=O)[C@H](CC(=O)O)NC(=O)[C@H](CC(=O)O)NC(=O)[C@@H](N)[C@@H](C)O)C(=O)NCC(=O)N[C@@H](CC(=O)O)C(N)=O).
T3 chain: TDD[sY]IGD-NH2
Briefly: NMR.

For the next experiment, the target named is T4, CCR7 5–11 pY8 (Homo sapiens, N-terminus assumed; SMILES CC[C@H](C)[C@H](NC(=O)[C@H](Cc1ccc(OP(=O)(O)O)cc1)NC(=O)[C@H](CC(=O)O)NC(=O)[C@H](CC(=O)O)NC(=O)[C@@H](N)[C@@H](C)O)C(=O)NCC(=O)N[C@@H](CC(=O)O)C(N)=O).
T4 chain: TDD[pY]IGD-NH2
Kind of experiment: NMR.

Non-standard residues stand in square brackets, D forms with d. Residues, ends and D or L forms follow the SMILES beside them. No end group written: not given here. sY = N[C@@H](Cc1ccc(OS(=O)(=O)O)cc1)C(=O)O; pY = N[C@@H](Cc1ccc(OP(=O)(O)O)cc1)C(=O)O

In the case of `CC[C@H](C)[C@H](NC(=O)[C@H](Cc1ccc(OP(=O)(O)O)cc1)NC(=O)[C@H](CC(=O)O)NC(=O)[C@H](CC(=O)O)NC(=O)[C@@H](N)[C@@H](C)O)C(=O)NCC(=O)N[C@@H](CC(=O)O)C(N)=O` [CCR7 5–11 pY8] (H-TDD[pY]IGD-NH2), on CCL21, the Kd came to 240 ± 60 µM. With `CC[C@H](C)[C@H](NC(=O)[C@H](Cc1ccc(OS(=O)(=O)O)cc1)NC(=O)[C@H](CC(=O)O)NC(=O)[C@H](CC(=O)O)NC(=O)[C@@H](N)[C@@H](C)O)C(=O)NCC(=O)N[C@@H](CC(=O)O)C(N)=O` [CCR7 5–11 sY8] (H-TDD[sY]IGD-NH2), on CCL21, the Kd stood at 140 ± 40 µM and the “Kd, CCL21 K69 only (representative residue)” value came to 180 ± 40 µM. For the molecule `CC(C)C[C@H](NC(=O)[C@H](CO)NC(=O)[C@H](CCC(=O)O)NC(=O)[C@H](Cc1ccccc1)NC(=O)[C@H](CC(C)C)NC(=O)[C@@H](NC(=O)[C@H](Cc1ccc(OP(=O)(O)O)cc1)NC(=O)[C@H](CC(=O)O)NC(=O)[C@@H](NC(=O)[C@@H](NC(=O)[C@@H](NC(=O)[C@H](CC(N)=O)NC(=O)[C@@H](N)CC(=O)O)[C@@H](C)O)[C@@H](C)O)C(C)C)[C@@H](C)O)C(=O)N[C@@H](C)C(=O)N[C@@H](CO)C(=O)N[C@@H](CCCCN)C(=O)N[C@@H](CCCCN)C(=O)N[C@@H](CC(=O)O)C(=O)N[C@H](C(=O)N[C@@H](CCCNC(=N)N)C(N)=O)C(C)C` [CCR7 11–30 pY17] (H-DNTTVD[pY]TLFESLASKKDVR-NH2), on CCL21, the Kd was 1700 µM. Still for that read-out and setting: as for `CC(C)C[C@H](NC(=O)[C@H](CO)NC(=O)[C@H](CCC(=O)O)NC(=O)[C@H](Cc1ccccc1)NC(=O)[C@H](CC(C)C)NC(=O)[C@@H](NC(=O)[C@H](Cc1ccc(OS(=O)(=O)O)cc1)NC(=O)[C@H](CC(=O)O)NC(=O)[C@@H](NC(=O)[C@@H](NC(=O)[C@@H](NC(=O)[C@H](CC(N)=O)NC(=O)[C@@H](N)CC(=O)O)[C@@H](C)O)[C@@H](C)O)C(C)C)[C@@H](C)O)C(=O)N[C@@H](C)C(=O)N[C@@H](CO)C(=O)N[C@@H](CCCCN)C(=O)N[C@@H](CCCCN)C(=O)N[C@@H](CC(=O)O)C(=O)N[C@H](C(=O)N[C@@H](CCCNC(=N)N)C(N)=O)C(C)C` [CCR7 11–30 sY17] (H-DNTTVD[sY]TLFESLASKKDVR-NH2), the figure is 480 ± 70 µM. The same measure, in the same setting: as for DNTTVDYTLFESLASKKDVR-NH2 [CCR7 11–30], the figure is 6800 µM. On to TDDYIGD-NH2 [CCR7 5–11], for which, on CCL21, the Kd came out at 700 ± 300 µM and the “Kd, CCL21 K69 only (representative residue)” value came out at 530 ± 40 µM.

B1: CCL21 (protein)
chain: SDGGAQDCCLKYSQRKIPAKVVRSYRKQEPSLGCSIPAILFLPRKRSQAELCADPKELWVQQLMQHLDKTPSPQKPAQGCRKDRGASKTGKKGKGSKGCKRTERSQTPKGP
For B1, the Kd came out at 700 µM in the experiment with CCR7 5–11, 140 µM with CCR7 5–11 sY8 and 240 µM with CCR7 5–11 pY8.

One may read the Kd as the constant that tells how readily two partners part at equilibrium.

Values taken from paper PMC5618506, “CCR7 Sulfotyrosine Enhances CCL21 Binding” (International Journal of Molecular Sciences, 2017).
